Measured values: patent US20170152226A1, “FUNCTIONALISED AND SUBSTITUTED INDOLES AS ANTI-CANCER AGENTS” (Novogen Ltd., priority 2014, published 2017)

How the values were obtained:
CHLA20 tumours = experiment: CHLA20 neuroblastoma xenograft model; assay type: in vivo; details: 150 mg/kg IP daily, 18 days
Method: FIG. 4: Compound 3507/30% w/v Dexolve-7 was administered IP daily at 150 mg/kg for 18 days in a flank xenograft model of neuroblastoma (CHLA-20). Tumour volume was measured every 2-3 days.
The in vivo efficacy of compound 3507 was evaluated in the CHLA20 neuroblastoma xenograft model. CHLA20 tumours were established in athymic nude mice by injecting 1.0×10^7 tumour cells subcutaneously in the right flank. Dosing of animals commenced when tumour volume reached ˜200-400 mm^3. Animals (˜n=5+) were randomly divided into treatment and control groups. Compound 3507 was dosed daily by intraperotineal (IP) injection at 150 mg/kg in 30% w/v Captisol (a cyclodextrin-containing formulation).

A375 tumours = experiment: Human melanoma (A375) xenograft model; assay type: in vivo; details: 60 mg/kg intravenously twice a week
Method: FIG. 5: Compound 3507/30% w/v Dexolve-7 was administered IV 2×/week at 60 mg/kg for 14 days in a flank xenograft model of melanoma (A375). Tumour volume was measured every 2-3 days. ** p<0.01.
The in vivo efficacy of 3507 was also evaluated in a human melanoma (A375) xenograft model. A375 tumours were established in female Foxn-1 nu/nu athymic mice by injecting approximately five million cells subcutaneously in the right flank region of the animal. When the tumours reached 130-150 mm^3 the animals were randomized into four groups, (n=8 or 12 animals/group) so that the average tumour volume of all the groups was same. Group 1 received vehicle (30% w/v Dexolve-7 in sterile water) twice a week intravenously, and Group 2 was dosed with 3507/Dexolve-7 at 60 mg/kg, twice a week intravenously. Tumours and body weight was measured two to three times in a week. In addition, throughout the study period mice were monitored daily for clinical condition.

MDA-MB-231 = experiment: Anti-proliferative activity, cell-titre luminescent viability assay; assay type: cell-based; details: Homo sapiens, MDA-MB-231, 72 h, 0.03, 0.3, 3 and 30 μM, linear regression of semi-log plots, read-out: IC50 Breast MDA-MB-231
Summary of the method: (§1)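 Cells attached for 24 h at 37° C, 5% CO2, then received compound (0.03, 0.3, 3, 30 μM, or 0.1–30 μM in six steps) for 72 h. Viability was read by cell-titre luminescence after 30 min and normalized to untreated or vehicle control. IC50 came from linear regression of semi-log plots, or EC50 from variable-slope sigmoidal nonlinear regression, depending on compound.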

DU145 = experiment: as above; assay type: cell-based; details: Homo sapiens, DU-145, 72 h, 0.03, 0.3, 3 and 30 μM, linear regression of semi-log plots, read-out: IC50 Prostate DU145
Summary of the method: as §1

SK-N-SH = experiment: as above; assay type: cell-based; details: Homo sapiens, SK-N-SH, 72 h, 0.03, 0.3, 3 and 30 μM, linear regression of semi-log plots, read-out: IC50 Neuroblastoma SK-N-SH
Summary of the method: as §1

PC3 = experiment: as above; assay type: cell-based; details: Homo sapiens, PC-3, 72 h, 0.03, 0.3, 3 and 30 μM, linear regression of semi-log plots, read-out: IC50 Prostate PC3
Summary of the method: as §1

CaCo2 = experiment: as above; assay type: cell-based; details: Homo sapiens, Caco-2, 72 h, 0.03, 0.3, 3 and 30 μM, linear regression of semi-log plots, read-out: IC50 Colorectal CaCo2
Summary of the method: as §1

A549 = experiment: as above; assay type: cell-based; details: Homo sapiens, A549, 72 h, 0.03, 0.3, 3 and 30 μM, linear regression of semi-log plots, read-out: IC50 Lung (NSLC) A549
Summary of the method: as §1

SK-Mel-28 = experiment: as above; assay type: cell-based; details: Homo sapiens, SK-MEL-28; 72 hours; 0.03, 0.3, 3 and 30 μM; linear regression of semi-log plots; read-out: IC50 Melanoma SK-Mel-28
Summary of the method: as §1

`Cc1c(C)n(CCCN2CCN(C)CC2)c2ccc(Oc3cccc(C(=O)N4CCN(CCc5ccc(F)cc5)CC4)c3)cc12` [Compound 3507, (3-((2,3-dimethyl-1-(3-(4-methylpiperazin-1-yl)propyl)-1H-indol-5-yl)oxy)phenyl)(4-(4-fluorophenethyl)piperazin-1-yl)methanone] was tested, and the tolerability (CHLA20 tumours) was “well tolerated”, the tolerability (A375 tumours) was “well tolerated” and the “reduction of melanoma tumour growth compared to vehicle control” value (A375 tumours; after 14 days treatment) was roughly 60%. The body weights (A375 tumours; throughout the study period) was “comparable to the control group”, the IC50 (MDA-MB-231) was 1.4 µM and the IC50 (DU145) was 1.3 µM. The IC50 (SK-N-SH) was 1.4 µM, the IC50 (PC3) was 1.2 µM and the IC50 (CaCo2) was 2.5 µM. The IC50 (A549) was 1.2 µM and the IC50 (SK-Mel-28) was 1 µM.
